Where “and” joins values, the source holds several entries; their conditions need not be identical. Equal values may be shown once. Toxic doses and inconclusive results are not listed. How the source made its calls: active means survival T/C of 150% or more; inactive means T/C below 125% in these data.
System: P388 leukemia ip, CD2F1 mice, survival T/C
Assay: NCI In Vivo Anticancer Drug Screen. Data for tumor model P388 Leukemia (intraperitoneal) in CD2F1 (CDF1) mice
Conditions: endpoint: median survival time, higher = longer survival
In short: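 Mice carrying the transplanted tumor received test compound or vehicle. Survival was recorded in each group, and the value is the treated-group measurement divided by that of the vehicle-treated control group.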

[1] = dose: 50.0 mg/kg/injection, schedule: Q01DX005 (ip), vehicle: saline with Tween-80
[2] = dose: 100.0 mg/kg/injection, schedule: Q01DX005 (ip), vehicle: saline with Tween-80
[3] = dose: 25.0 mg/kg/injection, schedule: Q01DX009 (ip), vehicle: saline with Tween-80
[4] = dose: 50.0 mg/kg/injection, schedule: Q01DX009 (ip), vehicle: saline with Tween-80
[5] = dose: 100.0 mg/kg/injection, schedule: Q01DX009 (ip), vehicle: saline with Tween-80
[6] = dose: 200.0 mg/kg/injection, schedule: Q01DX005 (ip), vehicle: saline with Tween-80

Measured: T/C

CCCCN(CCCC)CC(CN(CC)CC)N(CC)C(=O)Nc1ccccc1 (stereo not given)
inactive: dose: 12.5 mg/kg/injection, schedule: Q01DX005 (ip), vehicle: saline 94 % of control | dose: 25.0 mg/kg/injection, schedule: Q01DX005 (ip), vehicle: saline 93 % of control | dose: 50.0 mg/kg/injection, schedule: Q01DX005 (ip), vehicle: saline 102 % of control and 94 % of control

CSC1(SC2=NCCN2)SC2(NCCN2)S1
inactive: dose: 200.0 mg/kg/injection, schedule: Q01DX001 (ip), vehicle: Klucel (hydroxypropylcellulose) (HPC) 86 % of control | dose: 400.0 mg/kg/injection, schedule: Q01DX001 (ip), vehicle: Klucel (hydroxypropylcellulose) (HPC) 90 % of control

Brc1ccc(N=Cc2cccs2)cc1
inactive: dose: 100.0 mg/kg/injection, schedule: Q04DX003 (ip), vehicle: saline 100 % of control | dose: 200.0 mg/kg/injection, schedule: Q04DX003 (ip), vehicle: saline 99 % of control | dose: 400.0 mg/kg/injection, schedule: Q04DX003 (ip), vehicle: saline 98 % of control

CN1C(c2ccccc2)C2CSCC(C2O)C1c1ccccc1 (stereo not given)
inactive: dose: 100.0 mg/kg/injection, schedule: Q04DX003 (ip), vehicle: suspension in saline 106 % of control | dose: 200.0 mg/kg/injection, schedule: Q04DX003 (ip), vehicle: suspension in saline 100 % of control | dose: 400.0 mg/kg/injection, schedule: Q04DX003 (ip), vehicle: suspension in saline 98 % of control

CCc1ccc2c(c1)C(O)(C#Cc1ccccc1)c1cc(CC)ccc1C2(O)C#Cc1ccccc1 (stereo not given)
inactive: dose: 100.0 mg/kg/injection, schedule: Q04DX002 (ip), vehicle: saline with Tween-80 93 % of control | dose: 200.0 mg/kg/injection, schedule: Q04DX002 (ip), vehicle: saline with Tween-80 93 % of control | dose: 400.0 mg/kg/injection, schedule: Q04DX002 (ip), vehicle: saline with Tween-80 93 % of control

C=C1C2CCC3C(CCC4C35CCC[C@]4(C)CN3CCO[C@H]35)(C2)[C@H]1O (stereo not given in full)
inactive: dose: 1.0 mg/kg/injection, schedule: Q01DX009 (ip), vehicle: Klucel (hydroxypropylcellulose) (HPC) 100 % of control | dose: 2.0 mg/kg/injection, schedule: Q01DX009 (ip), vehicle: Klucel (hydroxypropylcellulose) (HPC) 98 % of control | dose: 4.0 mg/kg/injection, schedule: Q01DX009 (ip), vehicle: Klucel (hydroxypropylcellulose) (HPC) 106 % of control | dose: 8.0 mg/kg/injection, schedule: Q01DX009 (ip), vehicle: Klucel (hydroxypropylcellulose) (HPC) 96 % of control

O=C(O)C(=O)O.O=C([O-])C(=O)O.O=C([O-])C(=O)O.O=C([O-])C(=O)[O-].[K+].[U]
inactive: dose: 1.56 mg/kg/injection, schedule: Q01DX009 (ip), vehicle: saline 100 % of control | dose: 3.13 mg/kg/injection, schedule: Q01DX009 (ip), vehicle: saline 100 % of control

CC(C)(C)[Si](C)(C)CC#C[Si](C)(C)C
inactive: [1] 104 % of control | [2] 103 % of control

O=C1C=C(c2ccccc2)CC1
inactive: [3] 88 % of control | [4] 100 % of control | [5] 111 % of control

CN1CCc2cc3c(cc2C(=O)Cc2ccc4c(c2CO1)OCO4)OCO3
inactive: dose: 2.75 mg/kg/injection, schedule: Q01DX005 (ip), vehicle: Klucel (hydroxypropylcellulose) (HPC) 99 % of control | dose: 5.5 mg/kg/injection, schedule: Q01DX005 (ip), vehicle: Klucel (hydroxypropylcellulose) (HPC) 94 % of control | dose: 11.0 mg/kg/injection, schedule: Q01DX005 (ip), vehicle: Klucel (hydroxypropylcellulose) (HPC) 96 % of control | dose: 22.0 mg/kg/injection, schedule: Q01DX005 (ip), vehicle: Klucel (hydroxypropylcellulose) (HPC) 99 % of control

O=C(NCCCC1NC(=O)/C(=C(O)/C=C/C2CCCCC2)C1=O)OCc1ccccc1 (stereo not given)
inactive: [1] 100 % of control | [2] 95 % of control | [6] 100 % of control

O=S(=O)(c1ccc(NC(=S)N/N=C/c2ccccc2O)cc1)N1CCCCC1
inactive: dose: 12.5 mg/kg/injection, schedule: Q01DX009 (ip), vehicle: olive oil, sesame oil, peanut oil 105 % of control | dose: 25.0 mg/kg/injection, schedule: Q01DX009 (ip), vehicle: olive oil, sesame oil, peanut oil 96 % of control | dose: 50.0 mg/kg/injection, schedule: Q01DX009 (ip), vehicle: olive oil, sesame oil, peanut oil 96 % of control | dose: 100.0 mg/kg/injection, schedule: Q01DX009 (ip), vehicle: olive oil, sesame oil, peanut oil 91 % of control | dose: 200.0 mg/kg/injection, schedule: Q01DX009 (ip), vehicle: olive oil, sesame oil, peanut oil 91 % of control | dose: 400.0 mg/kg/injection, schedule: Q01DX009 (ip), vehicle: olive oil, sesame oil, peanut oil 97 % of control

CC1=C(O)NC(CC(=O)C(O)CO)=CN1 (stereo not given)
inactive: dose: 25.0 mg/kg/injection, schedule: Q01DX009 (ip), vehicle: water 101 % of control | dose: 50.0 mg/kg/injection, schedule: Q01DX009 (ip), vehicle: water 100 % of control | dose: 100.0 mg/kg/injection, schedule: Q01DX009 (ip), vehicle: water 95 % of control | dose: 200.0 mg/kg/injection, schedule: Q01DX009 (ip), vehicle: water 95 % of control | dose: 400.0 mg/kg/injection, schedule: Q01DX009 (ip), vehicle: water 111 % of control | dose: 800.0 mg/kg/injection, schedule: Q01DX009 (ip), vehicle: water 117 % of control

O=S(=O)(OC1=CC2c3ccccc3C1c1ccccc12)C(F)(F)F
inactive: dose: 50.0 mg/kg/injection, schedule: Q01DX005 (ip), vehicle: saline + Tween-80 + alcohol 100 % of control | dose: 100.0 mg/kg/injection, schedule: Q01DX005 (ip), vehicle: saline + Tween-80 + alcohol 100 % of control | dose: 200.0 mg/kg/injection, schedule: Q01DX005 (ip), vehicle: saline + Tween-80 + alcohol 103 % of control

Cc1cccc(-c2cc3ccccc3c(Cl)n2)n1
inactive: dose: 100.0 mg/kg/injection, schedule: Q01DX001 (ip), vehicle: saline with Tween-80 104 % of control | dose: 200.0 mg/kg/injection, schedule: Q01DX001 (ip), vehicle: saline with Tween-80 100 % of control | dose: 400.0 mg/kg/injection, schedule: Q01DX001 (ip), vehicle: saline with Tween-80 91 % of control

CC12OC(=O)CC1OC2(c1ccccc1)c1ccccc1 (stereo not given)
inactive: dose: 60.0 mg/kg/injection, schedule: Q01DX005 (ip), vehicle: saline with Tween-80 96 % of control | dose: 120.0 mg/kg/injection, schedule: Q01DX005 (ip), vehicle: saline with Tween-80 93 % of control | dose: 240.0 mg/kg/injection, schedule: Q01DX005 (ip), vehicle: saline with Tween-80 90 % of control

Fc1ccc(CSC(=S)Nc2ccc(F)cc2)cc1
inactive: dose: 50.0 mg/kg/injection, schedule: Q01DX009 (ip), vehicle: suspension in saline 108 % of control | dose: 100.0 mg/kg/injection, schedule: Q01DX009 (ip), vehicle: suspension in saline 103 % of control | dose: 200.0 mg/kg/injection, schedule: Q01DX009 (ip), vehicle: suspension in saline 108 % of control

N#Cc1ncnc2nc[nH]c12
inactive: dose: 50.0 mg/kg/injection, schedule: Q01DX005 (ip), vehicle: Klucel (hydroxypropylcellulose) (HPC) 101 % of control | dose: 100.0 mg/kg/injection, schedule: Q01DX005 (ip), vehicle: Klucel (hydroxypropylcellulose) (HPC) 107 % of control

COC(=O)C1=C(\N2CCOCC2)CCCCC/C=C\1C(=O)OC
inactive: [3] 99 % of control and 106 % of control | [4] 100 % of control and 103 % of control | [5] 103 % of control and 107 % of control | dose: 200.0 mg/kg/injection, schedule: Q01DX009 (ip), vehicle: saline with Tween-80 88 % of control and 95 % of control

CN=C1NS(=O)(=O)c2ccccc21
inactive: [1] 93 % of control | [2] 108 % of control | [6] 97 % of control
